Read-outs that look alike come from different tables or passages of the source.
Columns and labels:
ROS1 = ROS1 (Homo sapiens, UniProt P08922); assay: HTRF KinEASE-TK kinase inhibitory assay, ROS1; format: biochemical; details: for ROS1 Inhibition (1μM): kinase inhibition % at 1 μM; for inhibition at 1 µM: read-out: ROS1 Inhibition (1μM)
ALK^WT = ALK^WT (Homo sapiens, UniProt Q9UM73); assay: HTRF KinEASE-TK kinase inhibitory assay, ALK wild type; format: biochemical; details: for ALK Inhibition (1μM): kinase inhibition % at 1 μM; for inhibition at 1 µM: read-out: ALK Inhibition (1μM)
c-MET = c-MET (Homo sapiens, UniProt P08581); assay: HTRF kinase inhibitory assay, c-MET; format: biochemical; details: for c-MET Inhibition (1μM): kinase inhibition % at 1 μM; for inhibition at 1 µM: read-out: c-MET Inhibition (1μM)
[1] = tested on: HCC-78 cell line harbouring SLC34A2-ROS1 fusion; assay: Antiproliferative MTT assay, HCC-78; format: cell-based, human; details: read-out: Cellular IC50 (μM) HCC-78
[2] = tested on: NCI-H3122 cell line harbouring EML4-ALK fusion; assay: Antiproliferative MTT assay, NCI-H3122; format: cell-based, human; details: read-out: Cellular IC50 (μM) NCI-H3122
[3] = read-out: ROS1 IC50, average of two independent experiments
[4] = MTT, 72 h, mean of at least three independent experiments
[5] = average of two independent experiments

c-MET, sequence (P08581 25-1390): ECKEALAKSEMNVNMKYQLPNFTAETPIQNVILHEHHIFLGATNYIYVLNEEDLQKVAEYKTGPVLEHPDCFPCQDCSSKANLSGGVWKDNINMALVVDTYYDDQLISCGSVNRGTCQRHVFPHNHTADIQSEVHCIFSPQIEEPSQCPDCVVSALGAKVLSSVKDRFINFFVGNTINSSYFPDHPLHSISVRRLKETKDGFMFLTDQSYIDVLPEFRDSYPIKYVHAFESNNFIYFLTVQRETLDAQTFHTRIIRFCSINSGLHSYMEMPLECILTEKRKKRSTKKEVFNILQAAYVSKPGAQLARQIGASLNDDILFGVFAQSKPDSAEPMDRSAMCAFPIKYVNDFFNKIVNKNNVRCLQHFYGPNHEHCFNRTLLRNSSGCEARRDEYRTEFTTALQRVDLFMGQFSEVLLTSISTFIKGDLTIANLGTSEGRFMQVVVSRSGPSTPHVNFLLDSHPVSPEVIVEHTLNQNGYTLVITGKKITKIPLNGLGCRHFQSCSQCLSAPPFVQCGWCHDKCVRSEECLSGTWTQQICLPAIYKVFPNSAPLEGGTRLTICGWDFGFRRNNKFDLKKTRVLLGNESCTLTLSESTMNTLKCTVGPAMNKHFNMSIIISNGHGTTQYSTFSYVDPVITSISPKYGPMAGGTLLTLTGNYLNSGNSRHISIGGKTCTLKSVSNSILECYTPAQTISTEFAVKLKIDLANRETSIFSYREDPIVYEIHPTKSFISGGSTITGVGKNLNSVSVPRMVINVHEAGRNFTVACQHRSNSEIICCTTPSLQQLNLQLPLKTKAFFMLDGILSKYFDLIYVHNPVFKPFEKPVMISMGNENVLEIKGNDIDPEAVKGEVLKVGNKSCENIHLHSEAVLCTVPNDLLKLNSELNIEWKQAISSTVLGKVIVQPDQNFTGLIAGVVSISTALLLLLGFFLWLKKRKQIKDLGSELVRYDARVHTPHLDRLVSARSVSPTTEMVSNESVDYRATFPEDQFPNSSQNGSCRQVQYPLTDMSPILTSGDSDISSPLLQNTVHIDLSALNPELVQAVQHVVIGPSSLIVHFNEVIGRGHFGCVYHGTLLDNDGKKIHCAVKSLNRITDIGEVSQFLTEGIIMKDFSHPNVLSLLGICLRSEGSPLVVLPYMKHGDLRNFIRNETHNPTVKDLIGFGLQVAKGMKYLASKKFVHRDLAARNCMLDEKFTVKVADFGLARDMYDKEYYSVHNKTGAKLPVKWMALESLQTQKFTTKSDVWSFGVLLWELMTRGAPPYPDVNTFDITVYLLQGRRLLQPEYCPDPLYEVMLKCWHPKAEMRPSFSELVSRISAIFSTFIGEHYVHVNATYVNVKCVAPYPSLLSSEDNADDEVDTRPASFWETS
ROS1, sequence (P08922 28-2347): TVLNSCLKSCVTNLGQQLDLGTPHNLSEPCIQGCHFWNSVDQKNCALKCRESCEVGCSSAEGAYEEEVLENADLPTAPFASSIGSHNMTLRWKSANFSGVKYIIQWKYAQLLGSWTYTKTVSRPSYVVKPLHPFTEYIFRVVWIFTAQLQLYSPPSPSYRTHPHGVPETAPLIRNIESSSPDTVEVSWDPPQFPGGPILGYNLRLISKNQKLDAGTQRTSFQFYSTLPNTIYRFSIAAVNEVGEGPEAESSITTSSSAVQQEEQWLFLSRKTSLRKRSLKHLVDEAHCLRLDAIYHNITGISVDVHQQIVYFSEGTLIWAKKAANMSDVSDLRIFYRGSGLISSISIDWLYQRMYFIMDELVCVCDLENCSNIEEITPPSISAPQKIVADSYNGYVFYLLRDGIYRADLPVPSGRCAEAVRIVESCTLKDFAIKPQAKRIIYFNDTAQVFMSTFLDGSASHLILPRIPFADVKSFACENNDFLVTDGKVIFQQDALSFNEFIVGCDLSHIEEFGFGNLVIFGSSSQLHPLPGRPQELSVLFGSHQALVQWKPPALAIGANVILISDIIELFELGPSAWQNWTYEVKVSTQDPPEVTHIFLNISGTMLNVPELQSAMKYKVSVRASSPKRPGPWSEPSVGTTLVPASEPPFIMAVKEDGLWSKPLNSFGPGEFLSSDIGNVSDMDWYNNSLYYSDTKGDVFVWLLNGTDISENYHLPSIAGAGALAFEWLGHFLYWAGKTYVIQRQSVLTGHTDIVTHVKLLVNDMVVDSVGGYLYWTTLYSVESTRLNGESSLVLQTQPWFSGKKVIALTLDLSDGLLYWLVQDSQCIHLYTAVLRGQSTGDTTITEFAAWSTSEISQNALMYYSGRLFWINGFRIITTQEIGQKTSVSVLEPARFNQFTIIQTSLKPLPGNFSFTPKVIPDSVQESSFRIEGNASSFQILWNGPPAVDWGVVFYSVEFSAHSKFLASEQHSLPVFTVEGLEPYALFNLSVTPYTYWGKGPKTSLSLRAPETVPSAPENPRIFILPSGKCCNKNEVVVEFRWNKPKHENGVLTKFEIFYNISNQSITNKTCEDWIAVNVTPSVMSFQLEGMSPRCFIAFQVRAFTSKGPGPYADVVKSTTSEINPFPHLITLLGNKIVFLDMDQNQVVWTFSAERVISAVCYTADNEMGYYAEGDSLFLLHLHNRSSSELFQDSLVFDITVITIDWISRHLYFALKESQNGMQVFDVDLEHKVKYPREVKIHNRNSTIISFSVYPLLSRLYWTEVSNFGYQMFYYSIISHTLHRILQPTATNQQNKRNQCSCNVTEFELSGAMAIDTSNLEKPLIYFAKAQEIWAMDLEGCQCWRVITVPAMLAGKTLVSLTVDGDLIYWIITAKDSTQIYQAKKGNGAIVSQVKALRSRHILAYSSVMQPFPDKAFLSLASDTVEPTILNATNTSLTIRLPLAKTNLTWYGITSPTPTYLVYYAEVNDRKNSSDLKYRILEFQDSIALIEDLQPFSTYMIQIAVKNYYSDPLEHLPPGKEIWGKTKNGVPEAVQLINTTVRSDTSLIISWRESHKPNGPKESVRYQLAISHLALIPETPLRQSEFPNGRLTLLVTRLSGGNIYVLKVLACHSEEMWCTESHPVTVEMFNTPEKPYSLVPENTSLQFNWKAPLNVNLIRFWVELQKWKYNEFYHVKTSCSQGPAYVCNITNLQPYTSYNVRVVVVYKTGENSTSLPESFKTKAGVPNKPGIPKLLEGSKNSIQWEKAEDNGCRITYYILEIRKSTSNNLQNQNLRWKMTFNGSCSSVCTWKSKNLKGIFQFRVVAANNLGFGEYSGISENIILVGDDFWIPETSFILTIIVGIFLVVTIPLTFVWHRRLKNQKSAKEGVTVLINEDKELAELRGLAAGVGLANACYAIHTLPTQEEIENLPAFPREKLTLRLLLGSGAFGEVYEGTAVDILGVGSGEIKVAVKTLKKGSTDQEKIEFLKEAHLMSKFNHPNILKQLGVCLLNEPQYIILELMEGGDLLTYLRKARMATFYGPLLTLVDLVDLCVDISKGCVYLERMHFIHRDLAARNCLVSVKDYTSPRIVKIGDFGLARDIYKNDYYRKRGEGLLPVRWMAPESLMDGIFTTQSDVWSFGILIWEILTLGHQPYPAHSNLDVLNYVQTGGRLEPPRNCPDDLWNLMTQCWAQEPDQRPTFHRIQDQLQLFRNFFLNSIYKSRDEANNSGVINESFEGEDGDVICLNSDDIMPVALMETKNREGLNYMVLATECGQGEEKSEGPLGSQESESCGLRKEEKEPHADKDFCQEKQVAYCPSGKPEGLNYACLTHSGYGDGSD

Compound	IC50 (ROS1) [nM]	inhibition at 1 µM (ROS1) [%]	IC50 (ALK^WT) [nM]	inhibition at 1 µM (ALK^WT) [%]	inhibition at 1 µM (c-MET) [%]	IC50 ([1]; Homo sapiens, HCC78, 72 h) [µM]	IC50 ([2]; Homo sapiens, NCI-H3122, 72 h) [µM]	further results
(R)-5–(6-amino-5–(1-(4'-fluoro-[1,1'-biphenyl]-2-yl)ethoxy)pyridin-3-yl)-1'-methylspiro[indoline-3,4'-piperidin]-2-one [C06]								ROS1 Inhibition (1μM) (ROS1; average of two independent experiments, 1 µM): 98%; IC50 (ROS1; [3]): 31.2 nM; ALK Inhibition (1μM) (ALK^WT; 1 µM): 91%; IC50 (ALK^WT; read-out: ALK IC50): 214 nM; c-MET Inhibition (1μM) (c-MET; 1 µM): 58%; IC50 [1, 4]: 3.1 ± 0.3 µM; IC50 [2, 4]: 1.4 ± 0.1 µM
C[C@@H](Oc1cc(-c2ccnn2C)cnc1N)c1ccccc1-c1ccccc1 [B07, (R)-3–(1-([1,1'-biphenyl]-2-yl)ethoxy)-5–(1-methyl-1H-pyrazol-5-yl)pyridin-2-amine]	65.7	99	217	99	8	16.9 ± 1.4	14.3 ± 3.6	
CCCn1cc(-c2cnc(N)c(O[C@H](C)c3ccccc3-c3ccnn3C)c2)cn1 [B05, (R)-3–(1-(2–(1-methyl-1H-pyrazol-5-yl)phenyl)ethoxy)-5–(1-propyl-1H-pyrazol-4-yl)pyridin-2-amine]	260	90	1160	42	26	21.3 ± 0.7	96.2 ± 6.9	
(R)-5–(6-amino-5–(1-(4'-methyl-[1,1'-biphenyl]-2-yl)ethoxy)pyridin-3-yl)-1'-methylspiro[indoline-3,4'-piperidin]-2-one [C04]								ROS1 Inhibition (1μM) (ROS1; [5]): 100%; IC50 (ROS1; [3]): 16.5 nM; ALK Inhibition (1μM) (ALK^WT): 100%; IC50 (ALK^WT; read-out: ALK IC50): 38.8 nM; c-MET Inhibition (1μM) (c-MET): 43%; IC50 [2, 4]: 2.4 ± 0.3 µM
CCn1cc(-c2cnc(N)c(O[C@H](C)c3ccccc3F)c2)cn1 [A07, (R)-5–(1-ethyl-1H-pyrazol-4-yl)-3–(1-(2-fluorophenyl)ethoxy)pyridin-2-amine]	81.4	87		69	18			
CCCn1cc(-c2cnc(N)c(O[C@H](C)c3ccccc3-c3ccccc3)c2)cn1 [B10, (R)-3–(1-([1,1'-biphenyl]-2-yl)ethoxy)-5–(1-propyl-1H-pyrazol-4-yl)pyridin-2-amine]	148	98		82	60	7.7 ± 1.2	13.9 ± 1.2	
C[C@@H](Oc1cc(-c2cccn2C)cnc1N)c1ccccc1-c1ccnn1C [B01, (R)-3–(1-(2–(1-methyl-1H-pyrazol-5-yl)phenyl)ethoxy)-5–(1-methyl-1H-pyrrol-2-yl)pyridin-2-amine]	103	81		30	0	33.9 ± 1.8	186 ± 8.6	
(R)-5–(6-amino-5–(1-(4'-(trifluoromethoxy)-[1,1'-biphenyl]-2-yl)ethoxy)pyridin-3-yl)-1'-methylspiro[indoline-3,4'-piperidin]-2-one [C07]								ROS1 Inhibition (1μM) (ROS1; [5]): 95%; IC50 (ROS1; [3]): 73.6 nM; ALK Inhibition (1μM) (ALK^WT): 55%; IC50 (ALK^WT; read-out: ALK IC50): 414 nM; c-MET Inhibition (1μM) (c-MET): 18%; IC50 [1, 4]: 4.2 ± 0.2 µM; IC50 [2, 4]: 2.4 ± 0.1 µM
CCCn1cc(-c2cnc(N)c(O[C@H](C)c3ccccc3)c2)cn1 [A04, (R)-3–(1-phenylethoxy)-5–(1-propyl-1H-pyrazol-4-yl)pyridin-2-amine]	964	64	1540	37	5			fold decrease in ROS1 potency compared to A02 (ROS1; 963.9 nM vs. 99.5 nM): ~10 fold
C[C@@H](Oc1cc(-c2ccnn2C)cnc1N)c1ccccc1-c1ccnn1C [B02, (R)-5–(1-methyl-1H-pyrazol-5-yl)-3–(1-(2–(1-methyl-1H-pyrazol-5-yl)phenyl)ethoxy)pyridin-2-amine]	216	86		30	6	64.8 ± 4.5	689 ± 57.2	
C[C@@H](Oc1cc(-c2cccn2C)cnc1N)c1ccccc1F [A05, (R)-3–(1-(2-fluorophenyl)ethoxy)-5–(1-methyl-1H-pyrrol-2-yl)pyridin-2-amine]		43		18	-10	278 ± 53.1	168 ± 39.4	
CCn1cc(-c2cnc(N)c(O[C@H](C)c3ccccc3-c3ccccc3)c2)cn1 [B09, (R)-3–(1-([1,1'-biphenyl]-2-yl)ethoxy)-5–(1-ethyl-1H-pyrazol-4-yl)pyridin-2-amine]		99	75.9	92	50	11.4 ± 0.5	8.5 ± 1.2	
C[C@@H](Oc1cc(-c2cnn(C)c2)cnc1N)c1ccccc1F [A06, (R)-3–(1-(2-fluorophenyl)ethoxy)-5–(1-methyl-1H-pyrazol-4-yl)pyridin-2-amine]	83.1	100	231	73	11	16 ± 1.2	10.2 ± 0.1	
CCCn1cc(-c2cnc(N)c(O[C@H](C)c3ccccc3F)c2)cn1 [A08, (R)-3–(1-(2-fluorophenyl)ethoxy)-5–(1-propyl-1H-pyrazol-4-yl)pyridin-2-amine]	120	91		58	22	13.9 ± 6.3	36.8 ± 2.5	
C[C@@H](Oc1cc(-c2ccnn2C)cnc1N)c1ccccc1 [A01, (R)-5–(1-methyl-1H-pyrazol-5-yl)-3–(1-phenylethoxy)pyridin-2-amine]	173	101	407	90	5	28.7 ± 5.8	152 ± 44.4	
CCn1cc(-c2cnc(N)c(O[C@H](C)c3ccccc3-c3ccnn3C)c2)cn1 [B04, (R)-5–(1-ethyl-1H-pyrazol-4-yl)-3–(1-(2–(1-methyl-1H-pyrazol-5-yl)phenyl)ethoxy)pyridin-2-amine]	80.5			59	28	28 ± 4.5	128 ± 25.5	
(R)-5–(6-amino-5–(1-(3'-methyl-[1,1'-biphenyl]-2-yl)ethoxy)pyridin-3-yl)-1'-methylspiro[indoline-3,4'-piperidin]-2-one [C05]								ROS1 Inhibition (1μM) (ROS1; [5]): 100%; IC50 (ROS1; [3]): 77.3 nM; ALK Inhibition (1μM) (ALK^WT): 101%; IC50 (ALK^WT; read-out: ALK IC50): 79.7 nM; c-MET Inhibition (1μM) (c-MET): 59%; IC50 [1, 4]: 4.6 ± 0.1 µM; IC50 [2, 4]: 2.4 ± 0.1 µM
C[C@@H](Oc1cc(-c2cnn(C)c2)cnc1N)c1ccccc1 [A02, (R)-5–(1-methyl-1H-pyrazol-4-yl)-3–(1-phenylethoxy)pyridin-2-amine]	99.5	101	458	65	2	36.4 ± 3.7	149 ± 18.5	
CCn1cc(-c2cnc(N)c(O[C@H](C)c3ccccc3)c2)cn1 [A03, (R)-5–(1-ethyl-1H-pyrazol-4-yl)-3–(1-phenylethoxy)pyridin-2-amine]	317	85	454	65	14	50.5 ± 14	101 ± 22.8	
C[C@@H](Oc1cc(-c2cnn(C)c2)cnc1N)c1ccccc1-c1ccnn1C [B03, (R)-5–(1-methyl-1H-pyrazol-4-yl)-3–(1-(2–(1-methyl-1H-pyrazol-5-yl)phenyl)ethoxy)pyridin-2-amine]	374	74	286	88	21	52.7 ± 15.2	207 ± 40.7	
C[C@@H](Oc1cc(-c2cccn2C)cnc1N)c1ccccc1-c1ccccc1 [B06, (R)-3–(1-([1,1'-biphenyl]-2-yl)ethoxy)-5–(1-methyl-1H-pyrrol-2-yl)pyridin-2-amine]	192	90		44	9	7.1 ± 0.7	24.8 ± 5	

From article PMC10288926 (Journal of Enzyme Inhibition and Medicinal Chemistry, 2023)
